Test results published in ChEMBL document CHEMBL1159272, “Antimicrobial metabolites from a bacterial symbiont” (1995).
In brackets after ≈: the same amount, converted by molar mass.

What was measured:
Format in all cases: functional
Aspergillus fumigatus = assay: Antifungal activity against Aspergillus fumigatus ATCC 13073 after 24 hrs by serial dilution method; conditions: ATCC 13073, 24 h
Aspergillus flavus = assay: Antifungal activity against Aspergillus flavus ATCC 24133 after 24 hrs by serial dilution method; conditions: ATCC 24133, 24 h
Botrytis cinerea = assay: Antifungal activity against Botrytis cinerea after 48 hrs by serial dilution method
Candida tropicalis = assay: Antifungal activity against Candida tropicalis CBS94 after 24 hrs by serial dilution method
Cryptococcus neoformans = assay: Antifungal activity against Cryptococcus neoformans ATCC 14117 after 24 hrs by serial dilution method; conditions: ATCC 14117, 24 h
Phytophthora infestans = assay: Antifungal activity against Phytophthora infestans after 96 hrs by serial dilution method
Globisporangium ultimum = assay: Antifungal activity against Pythium ultimum after 24 hrs by serial dilution method

SMILES | MIC (Aspergillus fumigatus) | MIC (Aspergillus flavus) | MIC (Botrytis cinerea) | MIC (Candida tropicalis) | MIC (Cryptococcus neoformans) | MIC (Phytophthora infestans) | MIC (Globisporangium ultimum)
CC(C)C(=O)C(O)Cc1c[nH]c2ccccc12 (stereo unspecified) | > 100 µg/mL | > 100 µg/mL | 12 µg/mL (≈ 51.9 µM) | > 100 µg/mL | > 100 µg/mL | 50 µg/mL (≈ 216 µM) | > 100 µg/mL
CCC(C)C(=O)C(O)Cc1c[nH]c2ccccc12 (stereo unspecified) | > 100 µg/mL | > 100 µg/mL | 12 µg/mL (≈ 48.9 µM) | > 100 µg/mL | > 100 µg/mL | 100 µg/mL (≈ 408 µM) | > 100 µg/mL
CC(=O)OC(Cc1c[nH]c2ccccc12)C(=O)C(C)C (stereo unspecified) | > 100 µg/mL | > 100 µg/mL | > 100 µg/mL | > 100 µg/mL | 25 µg/mL (≈ 91.5 µM) |  | 
CCC(C)C(=O)C(Cc1c[nH]c2ccccc12)OC(C)=O (stereo unspecified) | > 100 µg/mL | > 100 µg/mL | > 100 µg/mL | > 100 µg/mL | 50 µg/mL (≈ 174 µM) | 100 µg/mL (≈ 348 µM) | > 100 µg/mL
